Patent US8658564B2, “Fungicide active ingredient combinations” (Bayer Cropscience AG, priority 2007, dated 2014)

How the values were obtained:
[1] = tested on: Rhizoctonia solani; assay: Rhizoctonia solani test (in vitro)/microtitre plates; format: cell-based; settings: 120 h, application rate 0.1 ppm, 5 days incubation, PDB medium, read-out: % efficacy
Experimental: Rhizoctonia solani Test (In Vitro)/Microtitre Plates The microtest is carried out in microtitre plates using Potato Dextrose Broth (PDB) as liquid test medium. The active compounds are used as technical-grade a.i., dissolved in methanol. For inoculation, a mycelium suspension of Rhizoctonia solani is used. After 5 days of incubation in the dark and with shaking (10 Hz), the transparency of each filled cavity of the microtitre plates is determined with the aid of a spectrophotometer. Here, 0% means an efficacy which corresponds to the growth in the controls, whereas an efficacy of 100% means that no fungal growth is observed.

[2] = tested on: Leptosphaeria nodorum; assay: Leptosphaeria nodorum test (wheat)/protective; format: in vivo, Leptosphaeria nodorum on wheat; settings: evaluation 10 days after inoculation
Experimental: Leptosphaeria nodorum Test (Wheat)/Protective • Solvent: 50 parts by weight of N,N-dimethylacetamide • Emulsifier: 1 part by weight of alkylaryl polyglycol ether To produce a suitable preparation of active compound, 1 part by weight of active compound is mixed with the stated amounts of solvent and emulsifier, and the concentrate is diluted with water to the desired concentration. To test for protective activity, young plants are sprayed with the active compound preparation at the stated application rate. After the spray coating has dried on, the plants are sprayed with a spore suspension of Leptosphaeria nodorum. The plants remain in an incubation cabin at 20° C. and 100% relative atmospheric humidity for 48 hours. The plants are placed in a greenhouse at a temperature of about 20° C. and a relative atmospheric humidity of 80%. Evaluation is carried out 10 days after the inoculation. Here, 0% means an efficacy which corresponds to that of the control, whereas an efficacy of 100% means that no infection is observed.

[3] = tested on: Pyrenophora teres; assay: Pyrenophora teres test (barley)/protective; format: in vivo, Pyrenophora teres on barley; settings: 62.5 g/ha; evaluation 10 days after inoculation
Experimental: Pyrenophora teres Test (Barley)/Protective • Solvent: 50 parts by weight of N,N-dimethylacetamide • Emulsifier: 1 part by weight of alkylaryl polyglycol ether To produce a suitable preparation of active compound, 1 part by weight of active compound or active compound combination is mixed with the stated amounts of solvent and emulsifier, and the concentrate is diluted with water to the desired concentration, or a commercial formulation of active compound or active compound combination is diluted with water to the desired concentration. To test for protective activity, young plants are sprayed with the active compound preparation at the stated application rate. After the spray coating has dried on, the plants are sprayed with a conidia suspension of Pyrenophora teres. The plants remain in an incubation cabin at 20° C. and 100% relative atmospheric humidity for 48 hours. The plants are then placed in a greenhouse at a temperature of about 20° C. and a relative atmospheric humidity of about 80%. Evaluation is carried out 10 days after the inoculation. Here, 0% means an efficacy which corresponds to that of the control, whereas an efficacy of 100% means that no infection is observed.

In the case of `CC(C)(C)C(O)(CCc1ccc(Cl)cc1)Cn1cncn1` (racemic) [Tebuconazole, (RS)-1-p-chlorophenyl-4,4-dimethyl-3-(1H-1,2,4-triazol-1-ylmethyl)-pentan-3-ol], the Emax at 0.1 ppm [1] is reported as 13% and the “Efficacy in % found” value ([2]; 62.5 g/ha) is reported as 56%.

With `OC(Cc1ccccc1Cl)(Cn1nc[nH]c1=S)C1(Cl)CC1` (stereo not shown) [(II) Prothioconazole, prothioconazole] the “Efficacy in % found” value [3] was 44%.

For `Cc1nn(C)c(F)c1C(=O)Nc1ccccc1C(C)CC(C)C` (stereo not shown) [(I), N-[2-(1,3-Dimethylbutyl)phenyl]-5-fluoro-1,3-dimethyl-1H-pyrazole-4-carboxamide], the “Efficacy in % found” value [3] was 67% and the “Efficacy in % found” value ([2]; 62.5 g/ha) was 0%.

For `COCC(=O)N(c1c(C)cccc1C)C(C)C(=O)OC` (stereo not shown) [(III) Metalaxyl, metalaxyl], the “Efficacy in % found” value [3] was 0% and the “Efficacy in % found” value ([2]; 125 g/ha) was 11%.
